Measured values from ChEMBL document CHEMBL1201862, “PubChem BioAssay data set” (2004).
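The compound was tested at five concentrations on cells cultured in 96-well plates, with a 48-hour exposure period. GI50: concentration for 50% inhibition of growth.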 Active and inactive are the calls of the source. Rule as the data show it: active = GI50 up to about 1.1 µM and inactive = higher.

Legend:
Test in all cases: NCI tumour cell line growth inhibition, 48 h
UACC-62 = system: UACC-62
OVCAR-8 = system: OVCAR-8
OVCAR-5 = system: OVCAR-5
OVCAR-3 = system: OVCAR-3
SNB-19 = system: SNB-19
DU-145 = system: DU-145
NCI-H226 = system: NCI-H226
HCC 2998 = system: HCC 2998
KM12 = system: KM12
Hs-578T = system: Hs-578T
HOP-92 = system: HOP-92
SK-MEL-2 = system: SK-MEL-2
TK-10 = system: TK-10
LOX IMVI = system: LOX IMVI
Malme-3M = system: Malme-3M
SNB-75 = system: SNB-75
SN12C = system: SN12C
SW-620 = system: SW-620
A498 = system: A498
U-251 = system: U-251

Measured: GI50

CC(C)(C)OC(=O)NC(CSCc1ccc(C(=O)c2ccccc2)cc1)C(=O)N1CCN(CCCCN2c3ccccc3Sc3cc(N=[N+]=[N-])ccc32)CC1 (stereo not given)
inactive: UACC-62 > 100 µM | OVCAR-8 > 100 µM | OVCAR-5 > 100 µM | OVCAR-3 > 100 µM | SNB-19 > 100 µM | DU-145 > 100 µM | NCI-H226 > 100 µM | HCC 2998 > 100 µM | KM12 > 100 µM | Hs-578T > 100 µM | HOP-92 > 100 µM | SK-MEL-2 > 100 µM | TK-10 > 100 µM | LOX IMVI > 100 µM | Malme-3M > 100 µM | SNB-75 58.7 µM | SN12C > 100 µM | SW-620 > 100 µM | A498 > 100 µM | U-251 > 100 µM

CC(C)N1CN(c2ccccc2)C2(CCN(CCCC(=O)c3ccc(F)cc3)CC2)C1=O
inactive: UACC-62 17.9 µM | OVCAR-8 24 µM | OVCAR-5 5.42 µM | OVCAR-3 22 µM | SNB-19 12.7 µM | DU-145 3.18 µM | NCI-H226 6.64 µM | HCC 2998 7.14 µM | KM12 22 µM | Hs-578T 16.1 µM | HOP-92 3.78 µM | SK-MEL-2 14 µM | TK-10 12.1 µM | LOX IMVI 7.1 µM | Malme-3M 14.7 µM | SNB-75 36.1 µM | SN12C 4.68 µM | SW-620 4.99 µM | A498 2.97 µM | U-251 26.7 µM

CCCCCCCCCCCCCCCCOP(=O)(O)OP(=O)(O)OCC1OC(n2cnc3c(N)ncnc32)C(O)C1O (stereo not given)
inactive: UACC-62 58.7 µM | OVCAR-8 39.8 µM | OVCAR-5 11.5 µM | OVCAR-3 > 100 µM | SNB-19 34 µM | DU-145 69.3 µM | NCI-H226 54.6 µM | HCC 2998 52.1 µM | KM12 > 100 µM | Hs-578T 43.8 µM | HOP-92 19.1 µM | SK-MEL-2 49.8 µM | TK-10 > 100 µM | LOX IMVI > 100 µM | Malme-3M 43.9 µM | SNB-75 24.4 µM | SN12C 36.3 µM | SW-620 > 100 µM | A498 > 100 µM | U-251 46 µM
